# From patent publication US5239084A, “Substituted aminoalkyl biphenyl compounds” (Hoffmann-La Roche Inc., priority 1990, dated 1993)
# “And” between values parts separate entries of the source, which are not always exact repeats. Identical values can stand only once. Counter-ions that a name gives are not always drawn. Like-named read-outs stand apart in the source and are kept apart here.
# Legend:
# [1] = target: T1, 2,3-epoxysqualene-lanosterol cyclase (Candida albicans, UniProt Q04782); test: inhibition of 2,3-epoxysqualene-lanosterol cyclase from Candida albicans (cell-free extract, 14C-squalene epoxide); assay type: biochemical
# T1 construct: there was obtained a cell-free extract (CFE) as the supernatant; endogenous in cells; host or cells: Candida albicans culture, protoplasts ruptured, cell-free extract (10000 g supernatant)
# C. albicans 3152 = test: agar dilution method, C. albicans 3152; assay type: cell-based, Candida albicans; conditions: Candida albicans, 48 h, alone, 37° C., 2 days
# C. albicans H12 = test: agar dilution method, C. albicans H12; assay type: cell-based, Candida albicans
# C. albicans B5 = test: agar dilution method, C. albicans B5; assay type: cell-based, Candida albicans
# C. albicans B4 = test: agar dilution method, C. albicans B4; assay type: cell-based, Candida albicans; conditions: for MIC: Candida albicans, B4, 48 h
# C. albicans H29 = test: agar dilution method, C. albicans H29; assay type: cell-based, Candida albicans
# C. albicans 3153 = test: agar dilution method, C. albicans 3153; assay type: cell-based, Candida albicans
# [2] = cell-free extract, pH 6.9, 30° C., 1 hour, read-out: IC50 (converted)
# [3] = in combination with compound 20
# [4] = in combination with compound 14
# T1 sequence (Q04782 whole entry): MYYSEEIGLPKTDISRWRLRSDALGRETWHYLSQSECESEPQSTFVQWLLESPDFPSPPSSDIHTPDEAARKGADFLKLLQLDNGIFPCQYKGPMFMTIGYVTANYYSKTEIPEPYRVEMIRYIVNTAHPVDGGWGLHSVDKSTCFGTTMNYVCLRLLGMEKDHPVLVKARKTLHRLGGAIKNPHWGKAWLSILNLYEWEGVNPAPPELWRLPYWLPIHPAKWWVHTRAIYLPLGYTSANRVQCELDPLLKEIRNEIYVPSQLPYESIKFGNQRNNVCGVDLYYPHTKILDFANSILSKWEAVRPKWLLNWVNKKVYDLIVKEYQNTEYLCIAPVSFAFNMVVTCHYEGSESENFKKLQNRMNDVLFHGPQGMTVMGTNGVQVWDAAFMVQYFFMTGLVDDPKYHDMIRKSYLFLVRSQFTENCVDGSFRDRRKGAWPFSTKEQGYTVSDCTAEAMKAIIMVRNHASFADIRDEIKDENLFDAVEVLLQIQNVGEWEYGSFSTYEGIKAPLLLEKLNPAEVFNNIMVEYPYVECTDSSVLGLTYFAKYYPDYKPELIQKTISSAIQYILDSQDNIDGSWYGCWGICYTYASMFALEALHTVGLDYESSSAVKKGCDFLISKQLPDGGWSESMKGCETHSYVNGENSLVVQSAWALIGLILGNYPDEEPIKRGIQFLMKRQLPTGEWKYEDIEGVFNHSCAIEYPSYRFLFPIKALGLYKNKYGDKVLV
compound,measurement,setting,value
"CC(c1ccc(-c2ccc(C(=O)c3ccccc3)cc2)cc1)N(C)C (racemic) [Compound 2, rac-4'-[1-(dimethylamino)ethyl]-4-biphenylyl phenyl ketone hydrochloride]",IC50,[1]; [2],219 nM
"C=CCN(C)C(C)c1ccc(-c2ccc(C(=O)c3ccccc3)cc2)cc1 (racemic) [Compound 18, rac-4'-[1-(Allylmethylamino)ethyl]-4-biphenylyl phenyl ketone hydrochloride]",IC50,[1],90 nM
"CN(C)Cc1ccc(-c2ccc(C(=O)c3ccccc3)cc2)cc1 [Compound 1, 4'-[(dimethylamino)methyl]-4-biphenylyl phenyl ketone hydrochloride]",IC50,[1]; [2],284 nM
"CN(C)Cc1ccc(-c2ccc(C(=O)c3ccc(F)cc3)cc2)cc1 [Compound 3, 4'-[(Dimethylamino)methyl]-4-biphenyl p-fluorophenyl ketone hydrochloride]",IC50,[1]; [2],300 nM
"CN(C)Cc1ccc(-c2ccc(C(=O)c3ccc(Cl)cc3Cl)cc2)cc1 [Compound 4, 2,4-dichlorophenyl 4'-[(dimethylamino)methyl]-4-biphenyl ketone hydrochloride]",IC50,[1]; [2],200 nM
"CN(C)Cc1ccc(-c2ccc(C(=O)c3ccc([N+](=O)[O-])cc3)cc2)cc1 [Compound 5, 4'-[(Dimethylamino)methyl]-4-biphenylyl p-nitrophenyl ketone hydrochloride]",IC50,[1]; [2],290 nM
"CN(C)Cc1ccc(-c2ccc(C(=O)c3ccc(Br)cc3)cc2)cc1 [Compound 6, p-Bromophenyl 4'-[(dimethylamino)methyl]-4-biphenylyl ketone hydrochloride]",IC50,[1]; [2],102 nM
CN(C)Cc1ccc(-c2ccc(C(=O)c3ccc(Cl)cc3Cl)cc2Cl)cc1 [Compound 7],IC50,[1]; [2],239 nM
"CN(C)Cc1ccc(-c2ccc(C(=O)c3ccc([N+](=O)[O-])cc3Cl)cc2)cc1 [Compound 8, 2-Chloro-4-nitrophenyl 4'-[(dimethylamino)methyl]-4-biphenyl ketone hydrochloride]",IC50,[1]; [2],111 nM
"CN(C)C(C)(C)c1ccc(-c2ccc(C(=O)c3ccccc3)cc2)cc1 [Compound 9, 4'-[1-(dimethylamino)-1-methylethyl]-4-biphenylyl phenyl ketone hydrochloride]",IC50,[1]; [2],2500 nM
"CN(C)Cc1ccc(-c2ccc(C(=O)c3ccc(I)cc3)cc2)cc1 [Compound 10, 4'-[(Dimethylamino)methyl]-4-biphenylyl p-iodophenyl ketone hydrochloride]",IC50,[1]; [2],98.4 nM
"CN(C)Cc1ccc(-c2ccc(C(=O)c3ccc(C#N)cc3)cc2)cc1 [Compound 11, p-[[(4'-[(Dimethylamino)methyl]-4-biphenylyl]carbonyl]-benzonitrile hydrochloride]",IC50,[1]; [2],170 nM
"CN(C)Cc1ccc(-c2ccc(C(=O)c3cccc4ccccc34)cc2)cc1 [Compound 12, 4'-[(Dimethylamino)methyl]-4-biphenylyl 1-naphthyl ketone hydrochloride]",IC50,[1]; [2],771 nM
"CN(C)Cc1ccc(-c2ccc(C(=O)c3ccc4ccccc4c3)cc2)cc1 [Compound 13, 4'-[(Dimethylamino)methyl]-4-biphenylyl 2-naphthyl ketone hydrochloride]",IC50,[1]; [2],522 nM
"C=CCN(C)Cc1ccc(-c2ccc(C(=O)c3ccc(F)cc3)cc2)cc1 [Compound 15, 4'-[(Allylmethylamino)methyl]-4-biphenylyl p-fluorophenyl ketone hydrochloride]",IC50,[1],100 nM
"C=CCN(C)Cc1ccc(-c2ccc(C(=O)c3ccc(Cl)cc3Cl)cc2)cc1 [Compound 16, 2,4-dichlorophenyl 4'-(allylmethylamino)-methyl]-4-biphenylyl ketone hydrochloride]",IC50,[1]; [2],39 nM
C=CCN(C)Cc1ccc(-c2ccc(C(=O)c3ccc([N+](=O)[O-])cc3)cc2)cc1 [Compound 17],IC50,[1]; [2],41.4 nM
"C=CCN(C)Cc1ccc(-c2ccc(C(=O)c3ccc(C#N)cc3)cc2)cc1 [Compound 19, p-[[4'-[(Allylmethylamino)methyl]-4-biphenylyl]carbonyl]-benzonitrile hydrochloride]",IC50,[1],109 nM
C=CCN(C)Cc1ccc(-c2ccc(C(=O)c3ccc(Cl)cc3Cl)cc2Cl)cc1 [Compound 21],IC50,[1]; [2],58.5 nM
"C=CCN(C)Cc1ccc(-c2ccc(C(=O)c3cccc4ccccc34)cc2)cc1 [Compound 22, 4'-[(Allylmethylamino)methyl]-4-biphenylyl 1-naphthyl ketone hydrochloride]",IC50,[1],434 nM
"C=CCN(C)Cc1ccc(-c2ccc(C(=O)c3ccc4ccccc4c3)cc2)cc1 [Compound 23, 4'-[(Allylmethylamino)methyl]-4-biphenylyl 2-naphthyl ketone hydrochloride]",IC50,[1],409 nM
"C=CCN(C)Cc1ccc(-c2ccc(C(=O)c3ccc([N+](=O)[O-])cc3Cl)cc2)cc1 [Compound 24, 4'-[[(Allylmethylamino)methyl]-4-biphenylyl 2-chloro-4-nitrophenyl ketone hydrochloride]",IC50,[1]; [2],26.1 nM
"CCN(C)Cc1ccc(-c2ccc(C(=O)c3ccccc3)cc2)cc1 [Compound 25, 4'-[Ethylmethylamino)methyl]-4-biphenylyl phenyl ketone hydrochloride]",IC50,[1]; [2],137 nM
"CNCc1ccc(-c2ccc(C(=O)c3ccccc3)cc2)cc1 [Compound 26, 4'-[(Methylamino)methyl]-4-biphenylyl phenyl ketone hydrochloride]",IC50,[1]; [2],592 nM
CN(C)Cc1ccc(-c2ccc(C(=O)c3ccc(Br)cc3Br)cc2)cc1 [Compound 27],IC50,[1]; [2],50.7 nM
C=CCN(C)Cc1ccc(-c2ccc(C(=O)c3ccc(Br)cc3Br)cc2)cc1 [Compound 28],IC50,[1]; [2],40.1 nM
COc1ccccc1C(=O)c1ccc(-c2ccc(CN(C)C)cc2)cc1 [Compound 29],IC50,[1]; [2],550 nM
CN(C)Cc1ccc(-c2ccc(C(=O)c3ccc(F)cc3F)cc2)cc1 [Compound 30],IC50,[1]; [2],82.5 nM
"C=CCN(C)Cc1ccc(-c2ccc(C(=O)c3ccc(F)cc3F)cc2)cc1 [Compound 31, 2,4-difluorophenyl 4'-[(allylmethylamino)methyl]-4-biphenylyl ketone]",IC50,[1],21.2 nM
Cc1ccccc1C(=O)c1ccc(-c2ccc(CN(C)C)cc2)cc1 [Compound 32],IC50,"[1]; cell-free extract, pH 6.9, 30° C., 1 hour",0/03
C=CCN(C)Cc1ccc(-c2ccc(C(=O)c3ccccc3C)cc2)cc1 [Compound 33],IC50,[1]; [2],33.8 nM
C=CCN(C)Cc1ccc(-c2ccc(C(=O)c3ccccc3C)cc2)cc1 [Compound 34],IC50,[1]; [2],50.6 nM
"CCCCCC(=O)c1ccc(-c2ccc(CN(C)C)cc2)cc1 [Compound 35, 4'-[(dimethylamino)-methyl]-4-biphenylyl pentyl ketone hydrochloride]",IC50,[1]; [2],89.6 nM
"CC(C)=CCCC(=O)c1ccc(-c2ccc(CN(C)C)cc2)cc1 [Compound 36, 4'-[(dimethylamino)methyl]-4-biphenylyl 4-methyl-3-pentenyl ketone hydrochloride]",IC50,[1]; [2],8.38 nM
"CN(C)Cc1ccc(-c2ccc(C(=O)CCCCCCCCO)cc2)cc1 [Compound 37, 4'-[(dimethylamino)methyl]-4-biphenylyl 8-hydroxyoctyl ketone hydrochloride]",IC50,[1]; [2],42.1 nM
"C=CCN(C)Cc1ccc(-c2ccc(C(=O)CCCCC)cc2)cc1 [Compound 38, 4'-[(allylmethylamino)methyl]-4-biphenylyl pentyl ketone hydrochloride]",IC50,[1],62.6 nM
"C=CCN(C)Cc1ccc(-c2ccc(C(=O)CCC=C(C)C)cc2)cc1 [Compound 39, 4'-[(allylmethylamino)methyl]-4-biphenylyl 4-methyl-3-pentenyl ketone]",IC50,[1],25.9 nM
"C=CCN(C)Cc1ccc(-c2ccc(C(=O)CCCCCCCCO)cc2)cc1 [Compound 40, 4'-[(allylmethylamino)methyl]-4-biphenylyl 8-hydroxyoctyl ketone fumarate]",IC50,[1],17.8 nM
"CC(=O)N1CCN(c2ccc(OCC3COC(Cn4ccnc4)(c4ccc(Cl)cc4Cl)O3)cc2)CC1 (stereo not drawn) [ketoconazole, reference compound]",MIC,C. albicans 3152,2.5 µg/mL
same,MIC,"C. albicans H12; Candida albicans, H12, 48 h, alone, 37° C., 2 days",5 µg/mL
same,MIC alone,"C. albicans H12; alone, 37° C., 2 days",10 µg/mL
same,MIC of sterol biosynthesis inhibitor in combination,C. albicans H12; [3],0.15 µg/mL and 0.075 µg/mL
same,MIC,"C. albicans B5; Candida albicans, B5, 48 h, alone, 37° C., 2 days",0.15 µg/mL
same,MIC alone,"C. albicans B5; alone, 37° C., 2 days",0.3 µg/mL
same,MIC of sterol biosynthesis inhibitor in combination,C. albicans B5; [4],0.019 µg/mL and 0.038 µg/mL
same,MIC of sterol biosynthesis inhibitor in combination,C. albicans B5; [3],0.019 µg/mL
same,MIC,"C. albicans B4; alone, 37° C., 2 days",2.5 µg/mL
same,MIC alone,"C. albicans B4; alone, 37° C., 2 days",5 µg/mL
same,MIC of sterol biosynthesis inhibitor in combination,C. albicans B4; [4],0.075 µg/mL and 0.15 µg/mL
same,MIC of sterol biosynthesis inhibitor in combination,C. albicans B4; [3],0.075 µg/mL
same,MIC,"C. albicans H29; Candida albicans, H29, 48 h, alone, 37° C., 2 days",0.15 µg/mL
same,MIC of sterol biosynthesis inhibitor in combination,C. albicans H29; [4],0.019 µg/mL and 0.038 µg/mL
same,MIC of sterol biosynthesis inhibitor in combination,C. albicans H29; [3],0.019 µg/mL
same,MIC,"C. albicans 3153; Candida albicans, 3153, 48 h, alone, 37° C., 2 days",2.5 µg/mL
same,MIC of sterol biosynthesis inhibitor in combination,C. albicans 3153; [3],0.075 µg/mL
"CN(C/C=C/C#CC(C)(C)C)Cc1cccc2ccccc12 [terbinafine, reference compound]",MIC of sterol biosynthesis inhibitor in combination,C. albicans H12; [4],1.5 µg/mL
same,MIC of sterol biosynthesis inhibitor in combination,C. albicans H12; [3],0.75 µg/mL
same,MIC of sterol biosynthesis inhibitor in combination,C. albicans B5; [4],3.0 µg/mL
same,MIC of sterol biosynthesis inhibitor in combination,C. albicans B5; [3],0.7 µg/mL
same,MIC,"C. albicans B4; alone, 37° C., 2 days",100 µg/mL
same,MIC of sterol biosynthesis inhibitor in combination,C. albicans B4; [4],3.0 µg/mL
same,MIC of sterol biosynthesis inhibitor in combination,C. albicans B4; [3],1.5 µg/mL
same,MIC of sterol biosynthesis inhibitor in combination,C. albicans H29; [4],3.0 µg/mL
same,MIC of sterol biosynthesis inhibitor in combination,C. albicans H29; [3],0.75 µg/mL
same,MIC of sterol biosynthesis inhibitor in combination,C. albicans 3153; [4],3.0 µg/mL and 1.5 µg/mL
same,MIC of sterol biosynthesis inhibitor in combination,C. albicans 3153; [3],1.50 µg/mL
